{"source": "patent EP0522944A2", "about": "“Use of 3-(3-pyridinyl)-1H,3H-pyrrolo(1,2-c)thiazole-7-carboxamide for the treatment of retroviral infections” (RHONE-POULENC RORER S.A., priority 1991, dated 1993)", "type_in_all_cases": "cell-based", "key": {"[1]": {"system": "cellules U1", "experiment": "Viability of the U1 cells in presence of the product", "conditions": "whatever the concentration used (0,1 to 100 µM)", "protocol": "(§1) Les cultures cellulaires sont prélévées en phase de croissance exponantielle et remises en culture à raison d'une concentration finale de 2x105 cellules/ml, en présence de différentes concentrations du produit à étudier. 30 minutes après, l'ensemble des cultures est additionné de TNFa ou de GM-CSF (Granulocyte Macrophage Colony Stimulating Factor) plus 11-6 (Interleukine-6). Chaque essai est fait en double, excepté les contrôles qui sont faits en quadruple. Chaque jour suivant, une fraction de surnageant des cultures est prélevée, et congelée en vue de la mesure de la reverse transcriptase. Les cellules sont nourries si nécessaire, avec du milieu frais ne contenant ni produit à étudier, ni activateur."}, "[2]": {"system": "virus HIV-1", "experiment": "Duration of action: pretreatment of U1 cells with the product before stimulation by TNF, PMA or GM-CSF + IL-6, reverse transcriptase production (second series)", "excerpt": "(§2) On utilise des lignées cellulaires U1 obtenues après infection de la lignée promonocytaire, U937, par le virus HIV-1 et sélectionnée le selon la capacité à augmenter la production virale en réponse au Phorbol My- ristate Acétate (PMA), au TNF et à d'autres médiateurs [Folks et al., Science, 238, 800 (1987)]. L'activité de la reverse transcriptase est utilisée comme un indicateur de la production virale. On analyse ainsi l'effet de concentrations croissantes du produit à étudier sur des lignées cellulaires stimulées.\nas §1, with “30 minutes après, l'ensemble des cultures est additionné de TNFa ou de GM-CSF (Granulocyte Macrophage Colony Stimulating Factor) plus 11-6 (Interleukine-6).” left out\n(§3) La mesure de l'activité de la reverse transcriptase est faite par les techniques connues, en double exemplaire [Strebel et al., Nature, 328, 728 (1987)].\nDans une seconde série d'essais, la durée d'action du (+) (pyridyl-3)-3 1H,3H-pyrrolo[1,2-c]thiazolecarboxamide-7 a été testée."}, "[3]": {"system": "virus HIV-1", "experiment": "Reverse transcriptase activity as indicator of viral production in chronically HIV-1 infected U1 cells stimulated with TNFa or GM-CSF + IL-6 (first series)", "excerpt": "Les effets du (+) (pyridyl-3)-3 1H,3H-pyrrolo[1,2-c] thiazolecarboxamide-7 sur l'induction du virus HIV-1 ont été étudiés sur des lignées cellulaires chroniquement infectées.\nas §2, §1, §3\nLe (+) (pyridyl-3)-3 1 H,3H-pyrrolo[1,2-c]thiazole carboxamide-7 est étudié aux concentrations de 100, 10, 1 et 0,1 µM.\nLe TNFa est additionné à raison de 100, 10 ou 1 Unités/ml. Le GM-CSF + 11-6 est additionné à raison de 100 U/mi. Certains contrôles ne recoivent pas l'activateur. D'autres contrôles ne reçoivent pas le produit à étudier. D'autres ne reçoivent ni le produit ni l'activateur."}}}
{"smiles": "NC(=O)c1ccn2c1CSC2c1cccnc1", "note": "(single isomer, unassigned; (+)) [produit, (+) (pyridyl-3)-3 1H,3H-pyrrolo[1,2-c]thiazole carboxamide-7]", "values": [{"measurement": "viabilité des cellules", "setting": "[1]", "value": "sans effet"}, {"measurement": "Production de Reverse Transcriptase Coups par minute (cpm)", "setting": "[2]; Tableau I, U1 cells + product 100µM, no stimulation, contact time 0,5 h", "value": "<100", "unit": "cpm"}, {"measurement": "Production de Reverse Transcriptase Coups par minute (cpm)", "setting": "[2]; Tableau I, U1 cells + product 100µM, no stimulation, contact time 2 h", "value": "<100", "unit": "cpm"}, {"measurement": "Production de Reverse Transcriptase Coups par minute (cpm)", "setting": "[2]; Tableau I, U1 cells + product 100µM, no stimulation, contact time 7 h", "value": "<100", "unit": "cpm"}, {"measurement": "Production de Reverse Transcriptase Coups par minute (cpm)", "setting": "[2]; Tableau I, U1 cells + product 100µM, no stimulation, contact time 10 h", "value": "<100", "unit": "cpm"}, {"measurement": "Production de Reverse Transcriptase Coups par minute (cpm)", "setting": "[2]; Tableau II, U1 cells + product 100µM, no stimulation, contact time 0,5 h", "value": "env.100 cpm"}, {"measurement": "Production de Reverse Transcriptase Coups par minute (cpm)", "setting": "[2]; Tableau II, U1 cells + product 100µM, no stimulation, contact time 2 h", "value": "env.100 cpm"}, {"measurement": "Production de Reverse Transcriptase Coups par minute (cpm)", "setting": "[2]; Tableau II, U1 cells + product 100µM, no stimulation, contact time 7 h", "value": "env.100 cpm"}, {"measurement": "Production de Reverse Transcriptase Coups par minute (cpm)", "setting": "[2]; Tableau II, U1 cells + product 100µM, no stimulation, contact time 10 h", "value": "<100", "unit": "cpm"}, {"measurement": "Production de Reverse Transcriptase Coups par minute (cpm)", "setting": "[2]; Tableau III, U1 cells + product 100µM, no stimulation, contact time 0,5 h", "value": 180, "unit": "cpm"}, {"measurement": "Production de Reverse Transcriptase Coups par minute (cpm)", "setting": "[2]; Tableau III, U1 cells + product 100µM, no stimulation, contact time 2 h", "value": 150, "unit": "cpm"}, {"measurement": "Production de Reverse Transcriptase Coups par minute (cpm)", "setting": "[2]; Tableau III, U1 cells + product 100µM, no stimulation, contact time 7 h", "value": 180, "unit": "cpm"}, {"measurement": "Production de Reverse Transcriptase Coups par minute (cpm)", "setting": "[2]; Tableau III, U1 cells + product 100µM, no stimulation, contact time 10 h", "value": 160, "unit": "cpm"}, {"measurement": "Production de Reverse Transcriptase Coups par minute (cpm)", "setting": "[2]; U1 cells + product 100µM + GM-CSF (100U) + IL6 (100U), contact time before stimulation 0,5 h", "value": 200, "unit": "cpm"}, {"measurement": "Production de Reverse Transcriptase Coups par minute (cpm)", "setting": "[2]; U1 cells + product 100µM + GM-CSF (100U) + IL6 (100U), contact time before stimulation 2 h", "value": 180, "unit": "cpm"}, {"measurement": "Production de Reverse Transcriptase Coups par minute (cpm)", "setting": "[2]; U1 cells + product 100µM + GM-CSF (100U) + IL6 (100U), contact time before stimulation 7 h", "value": 170, "unit": "cpm"}, {"measurement": "Production de Reverse Transcriptase Coups par minute (cpm)", "setting": "[2]; U1 cells + product 100µM + GM-CSF (100U) + IL6 (100U), contact time before stimulation 10 h", "value": 180, "unit": "cpm"}, {"measurement": "Production de Reverse Transcriptase Coups par minute (cpm)", "setting": "[2]; U1 cells + product 100µM + PMA (10^-7), contact time before stimulation 0,5 h", "value": 4700, "unit": "cpm"}, {"measurement": "Production de Reverse Transcriptase Coups par minute (cpm)", "setting": "[2]; U1 cells + product 100µM + PMA (10^-7), contact time before stimulation 2 h", "value": 1900, "unit": "cpm"}, {"measurement": "Production de Reverse Transcriptase Coups par minute (cpm)", "setting": "[2]; U1 cells + product 100µM + PMA (10^-7), contact time before stimulation 7 h", "value": 1900, "unit": "cpm"}, {"measurement": "Production de Reverse Transcriptase Coups par minute (cpm)", "setting": "[2]; U1 cells + product 100µM + PMA (10^-7), contact time before stimulation 10 h", "value": 900, "unit": "cpm"}, {"measurement": "Production de Reverse Transcriptase Coups par minute (cpm)", "setting": "[2]; U1 cells + product 100µM + TNFα(100U), contact time before stimulation 0,5 h", "value": 300, "unit": "cpm"}, {"measurement": "Production de Reverse Transcriptase Coups par minute (cpm)", "setting": "[2]; U1 cells + product 100µM + TNFα(100U), contact time before stimulation 2 h", "value": 200, "unit": "cpm"}, {"measurement": "Production de Reverse Transcriptase Coups par minute (cpm)", "setting": "[2]; U1 cells + product 100µM + TNFα(100U), contact time before stimulation 7 h", "value": 180, "unit": "cpm"}, {"measurement": "Production de Reverse Transcriptase Coups par minute (cpm)", "setting": "[2]; U1 cells + product 100µM + TNFα(100U), contact time before stimulation 10 h", "value": "env.100 cpm"}, {"measurement": "effet inhibiteur de la réplication du HIV-1", "setting": "[2]; pretreatment 30 minutes to 24 heures before stimulation by TNF, PMA or GM-CSF + II-6", "value": "n'affecte pas l'effet inhibiteur"}, {"measurement": "inhibition at 100 µM", "setting": "[3]; Human immunodeficiency virus 1, 72 h, U1 cells, 100 Unités/ml TNFa, day 3, product 10-^4M, read-out: diminution de l'activité de la reverse transcriptase", "value": 84, "unit": "%"}, {"measurement": "inhibition at 10 µM", "setting": "[3]; Human immunodeficiency virus 1, 72 h, U1 cells, 100 Unités/ml TNFa, day 3, product 10^-5M, read-out: diminution de l'activité de la reverse transcriptase", "value": 50, "unit": "%"}, {"measurement": "diminution de la production virale", "setting": "[3]; U1 cells treated with TNFa", "value": "significative et dose-dépendante"}, {"measurement": "action inhibitrice du HIV-1 dans les cellules U1", "setting": "[3]; stimulated by GM-CSF + II-6", "value": "significative"}]}
